The record followed here is patent US20240208945A1, “6-CARBAMATE SUBSTITUTED HETEROARYL RING DERIVATIVES” (MEDSHINE DISCOVERY INC., priority 2021, published 2024).

Data set [1] relates to Human pancreatic cancer cells (Miapaca2). Put plainly: In vivo drug efficacy in the Miapaca2 nude mouse xenograft tumor model. The arrangement: species or system Balb/c nude mice. To be noted: Miapaca-2 xenograft, AMG-510 5 mg/kg once a day, compound 14 hydrochloride 50 mg/kg twice a day, intragastric. The procedure:
Human pancreatic cancer cells (Miapaca2) were cultured in vitro as a monolayer on an adherent surface, and the culture conditions were DMEM medium plus 10% fetal bovine serum, cultured in a 37° C., 5% CO2 incubator. The cells were treated with trypsin-EDTA for routine digestion and passaged two to three times a week. When the cell saturation was 80% to 90% and the number reached the requirements, the cells were collected, counted, and inoculated.
Balb/c nude mice, female, 6 to 7 weeks old, were purchased from Shanghai SIPPR-BK Lab Animal Co., Ltd.
0.2 mL (5×10^6) Miapaca-2 cells (plus Matrigel, volume ratio of 1:1) were subcutaneously inoculated on the right back of each mouse, and the administration in groups began when the average tumor volume reached 118 mm^3.
The tumor diameter was measured twice a week with a vernier caliper, and the tumor volume was measured in cubic millimeters, calculated by the following formula: V=0.5a×b^2, wherein a and b are the long and short diameters of the tumor, respectively. The tumor inhibitory efficacy of the test compound was evaluated by using TGI (%). TGI (%) reflects the rate of tumor growth inhibition. […]

Data set [2] concerns the target binding of KRAS(G12C) to SOS1 (Homo sapiens (Human), UniProt Q07889). The data set is described as follows: KRAS(G12C) and SOS1 binding assay (HTRF). To be noted: 25° C., 60 minutes. From the text: The small molecular compound binds to the catalytic site of SOS1, thus inhibiting the binding of SOS1 to KRAS (G12C). When the binding of fluorescently labeled SOS1 protein to fluorescently labeled KRAS (G12C) protein is inhibited, the emitted fluorescence changes. The ability of small molecules to prevent the binding of SOS1 to KRAS (G12C) can be tested by detecting changes in fluorescence. A homogeneous time-resolved fluorescence (HTRF) binding assay was used to detect the ability of the compounds of the present disclosure to inhibit the binding of SOS1 to KRAS (G12C).
KRAS (G12C) protein was expressed and purified by Wuhan AtaGenix Biotechnology Co., Ltd., SOS1 exchange domin (564-1049) protein (Human recombinant) was purchased from Cytoskeleton, Mab Anti 6HIS-XL665 and Mab Anti GST-Eu cryptate were purchased from Cisbio. Multimode microplate reader Nivo5 was purchased from PerkinElmer.
1× buffer preparation (ready-to-use): Hepes: 5 mM; NaCl: 150 mM; EDTA: 10 mM; Igepal: 0.0025%; KF: 100 mM; DTT: 1 mM; BSA: […];
The test compounds were 5-fold diluted with DMSO using a multi-channel pipette to the 8th concentration, i.e., diluted from 1 mM to 0.064 μM.
The test compound was diluted by gradient with 1× buffer to a working solution with 2% DMSO. 5 μL/well of the working solution was added to corresponding wells, and the corresponding concentration gradient was 20 μM to […]. Duplicate experiment was set. The working solution was centrifuged at 1000 rpm for 1 minute.
A mixed working solution of KRAS(G12C) (200 nM) and Mab Anti GST-Eu cryptate (1 ng/μL) was prepared with 1× buffer, and the mixed working solution was incubated at 25° C. for 5 minutes, and 2.5 μL/well of the mixed working solution was added to the corresponding wells.
A mixed working solution of SOS1 (80 nM) and Mab Anti 6HIS-XL665 ([…]) was prepared with 1× buffer, and 2.5 μL/well of the mixed working solution was added to the corresponding wells. 2.5 μL of Mab Anti 6HIS-XL665 ([…]) diluent was added to blank wells. At this time, the final concentration gradient of the compound was diluted from 10 μM to 0.64 nM, KRAS(G12C) ([…]), MAb Anti GST-Eu cryptate (0.25 ng/μL), SOS1 (20 nM), Mab Anti 6HIS-XL665 (2 g/μL), the reaction system was placed at 25° C. for 60 minutes. After the reaction was completed, the multimode microplate reader was used to read HTRF.
Using the equation (Sample−Min)/(Max−Min)×100% to convert the raw data into inhibition rate, the IC50 value might be obtained by curve fitting with four parameters (obtained by “log (inhibitor) vs. response—Variable slope” mode in GraphPad Prism).
On the technique in general: TR-FRET usually uses a lanthanide donor and a delayed reading to cut background.

Data set [3] deals with p-ERK in DLD-1 cells. Put plainly: p-ERK inhibitory activity test in DLD-1 cells (HTRF Phospho-ERK1/2 kit). Type of data set: cell-based. The note with it: Homo sapiens, 1 hour incubation. The procedure: DLD-1 cells were purchased from Nanjing Cobioer; 1640 medium was purchased from Biological Industries; fetal bovine serum was purchased from Biosera; Advanced Phospho-ERK1/2 (THR202/TYR204) KIT was purchased from Cisbio.
DLD-1 cells were seeded in a transparent 96-well cell culture plate, with 80 μL of cell suspension per well and 8000 DLD-1 cells per well. The cell plate was incubated in a carbon dioxide incubator at 37° C. overnight; • the test compound was diluted to 2 mM with 100% DMSO as the first concentration, and then 5-fold diluted to the 8th concentration with a pipette, that is, diluted from 2 mM to 0.026 μM. 2 μL of compound was added to 78 μL of cell starvation medium. After mixing well, 20 μL of compound solution was taken and added to the corresponding cell plate wells, and the cell plate was put back to the carbon dioxide incubator to continue to incubate for 1 hour; at this time, the concentration of the compound was from 10 μM to 0.128 nM, and the concentration of DMSO was 0.5%; • after the incubation was completed, the cell supernatant was discarded, and 50 μL of cell lysate was added to each well, and incubated at room temperature for 30 minutes with shaking; • Phospho-ERK1/2 Eu Cryptate antibody and Phospho-ERK1/2 d2 antibody were 20-fold diluted using Detection buffer; • 16 μL of cell lysate supernatant per well was put into a new 384 white microplate, then 2 μL of Phospho-ERK1/2 Eu Cryptate antibody diluent and 2 μL of Phospho-ERK1/2 d2 antibody diluent were added thereto and incubated at room temperature for 4 hours; • after the incubation was completed, a multimode microplate reader was used to read HTRF excitation: 320 nm, emission: 615 nm, 665 nm.
Using the equation (Sample−Min)/(Max−Min)*100% to convert the raw data into inhibition rate, the IC50 value might be obtained by curve fitting with four parameters (obtained by “log (inhibitor) vs. response—Variable slope” mode in GraphPad Prism). • Max well: Positive control well reading is 1× lysate • Min well: Negative control well reading is 0.5% DMSO cell well cell lysate

A short description of data set [4]: Pharmacokinetic evaluation in CD-1 mice (IV and oral). It is filed as in vivo. To be noted: mouse, plasma. The procedure:
CD-1 mice (male, 7 to 9 weeks old, Shanghai SLAC)
The pharmacokinetic characteristics of the compound in rodents after intravenous injection and oral administration were tested according to the standard protocol. In the experiment, the candidate compound was formulated into clear solutions, and a single intravenous injection and oral administration were given to mice. The vehicle for intravenous injection and oral administration was a mixed vehicle composed of 10% dimethyl sulfoxide and 90% hydroxypropyl β-cyclodextrin with a content of 10%. In this project, four female CD-1 mice were used, and two mice were administered intravenously at a dose of 1 mg/kg. Plasma samples were collected at 0.033, 0.083, 0.25, 0.5, 1, 2, 4, 8, and 12 hours after administration. The other two mice were administered orally by gavage at a dose of 2 mg/kg. Plasma samples were collected at 0.083, 0.25, 0.5, 1, 2, 4, 8, and 12 hours after administration, […] at 4° C. for 10 minutes at 3,200×g, and the supernatants were separated from the plasma samples. The protein was precipitated by adding 20 times the volume of methanol solution containing internal standard, […] at 12000×g for 15 minutes, centrifuged at 4° C. 50 μL of the supernatant was transferred to a 96-well plate and centrifuged for a second time to take the supernatant for injection. The plasma concentration was quantitatively analyzed by LC-MS/MS analysis method, and the pharmacokinetic parameters were calculated, such as peak concentration (Cmax), clearance rate (CL), half-life (T1/2), volume of distribution at steady state (Vdss), area under drug-time curve (AUC0-last), bioavailability (F).

Structures can show the parent of a compound that is named as a salt.

Sequence of binding of KRAS(G12C) to SOS1 (Q07889 564-1049, stated change not applied): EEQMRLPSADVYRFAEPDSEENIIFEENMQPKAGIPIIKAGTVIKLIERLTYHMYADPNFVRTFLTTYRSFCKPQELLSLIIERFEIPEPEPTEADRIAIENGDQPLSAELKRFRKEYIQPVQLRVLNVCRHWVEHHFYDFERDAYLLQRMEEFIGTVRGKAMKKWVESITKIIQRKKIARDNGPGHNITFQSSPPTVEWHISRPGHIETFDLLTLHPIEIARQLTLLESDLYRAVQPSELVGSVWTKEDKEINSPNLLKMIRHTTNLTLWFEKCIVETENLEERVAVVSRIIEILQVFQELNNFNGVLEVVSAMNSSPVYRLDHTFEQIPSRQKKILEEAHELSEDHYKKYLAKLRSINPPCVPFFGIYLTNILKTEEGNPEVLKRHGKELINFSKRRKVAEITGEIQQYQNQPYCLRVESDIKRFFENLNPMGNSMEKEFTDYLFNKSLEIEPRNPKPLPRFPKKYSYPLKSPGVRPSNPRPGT

Turning to `C=CC(=O)N1CCN(c2nc(=O)n(-c3c(C)ccnc3C(C)C)c3nc(-c4c(O)cccc4F)c(F)cc23)[C@@H](C)C1` (atropisomer, axis not shown) [AMG-510], in data set [1], the “Mean tumor volume ± SEM (day 22)” value was 819 ± 407 mm^3. This compound displayed a tumour growth inhibition (TGI) in data set [1] (day 22) of 59.4%.

On to `COc1cc2nc(C)nc(N[C@H](C)c3cccc(C(F)(F)C(C)(C)O)c3F)c2cc1OC(=O)N1CCN(C)CC1C` (stereo partly shown) [Hydrochloride of compound 14], for which the IC50 in data set [2] stood at 40.4 nM; in data set [3], 78.9 nM. The Cmax in data set [4] (IV 1 mg/kg and oral 2 mg/kg study, read-out: Peak concentration Cmax) is 92.3 nM. Moreover, the bioavailability in data set [4] (IV 1 mg/kg, PO 2 mg/kg, read-out: Bioavailability F) came to 33.9%. Besides, the clearance in data set [4] (IV 1 mg/kg, read-out: Clearance rate CL) was determined as 29.2 mL/min/kg. In addition, the half-life in data set [4] (IV 1 mg/kg, read-out: Half life T1/2 (IV) (converted)) is 2.96 h. In data set [4] (IV 1 mg/kg, read-out: Volume of distribution at steady state Vdss), the Vd is 4.95 L/kg. Moreover, in data set [4] (PO 2 mg/kg, read-out: Area under drug-time curve AUC0-last PO), the AUC(0-t) came out at 0.606 µM·h.

Broadly, the TGI is the reduction of tumour growth relative to the control group. Read a high TGI as a stronger effect on the tumour. Broadly, the IC50 is the concentration that gives 50% inhibition. Lower therefore signals inhibition by little substance. The term bioavailability denotes dose-corrected exposure relative to a reference, in per cent.
